Reference: paper PMC6270616, “Antidiabetic and Antioxidant Properties of Alkaloids from Catharanthus roseus (L.) G. Don” (Molecules, 2013)

Target: T1, protein tyrosine phosphatase-1B (PTP-1B) (Homo sapiens, UniProt P18031)
T1 construct: gene PTPN1; recombinant PTP-1B
T1 sequence (P18031 1-435): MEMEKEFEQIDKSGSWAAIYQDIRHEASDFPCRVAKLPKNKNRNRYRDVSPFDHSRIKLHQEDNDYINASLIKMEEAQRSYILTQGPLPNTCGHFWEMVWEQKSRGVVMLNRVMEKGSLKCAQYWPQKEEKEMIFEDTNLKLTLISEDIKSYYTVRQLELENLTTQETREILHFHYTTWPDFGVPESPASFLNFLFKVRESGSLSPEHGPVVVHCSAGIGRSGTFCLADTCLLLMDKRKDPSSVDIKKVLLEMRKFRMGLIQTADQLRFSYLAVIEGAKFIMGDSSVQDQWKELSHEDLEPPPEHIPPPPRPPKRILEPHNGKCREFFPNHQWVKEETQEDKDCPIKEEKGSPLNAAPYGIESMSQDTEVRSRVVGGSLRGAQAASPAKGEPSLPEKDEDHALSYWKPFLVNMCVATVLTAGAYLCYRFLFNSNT
Test: pNPP phosphatase assay with recombinant enzyme, absorbance at […] nm
Assay type: biochemical

COC(=O)[C@@H]1C[C@@]23C=CCN4CC[C@@]5(c6ccccc6N[C@]15[C@@H]2C)[C@@H]43 [IV, vindolinine]
pNPP phosphatase assay with recombinant enzyme, absorbance at 405 nm: compounds II–IV demonstrated good protein tyrosine phosphatase-1B (PTP-1B) inhibition activity
